One data set deals with db/db mice. Briefly: Reduction of fasting glycemia in db/db mice. The data set is classed as in vivo. Conditions: db/db mice treated for two weeks with a daily dose, versus vehicle; t-test p less than 0.01 (FIG. 1). The method, then: 5-weeks old male mice C57BL/Ks bearing the db/db mutation (The Jackson Laboratories) and 7-weeks old male mice C57BL/6 bearing the ob/ob mutation are purchased from Charles River Laboratories Spain (Sant Cugat del Vallès, Spain) are treated with compounds as disclosed herein for a month, administered by single oral injection. Glycemia levels are determined in blood from the Tail Vein, using a rapid glucose analyzer (Accu-Chek Aviva; Roche) 3 times per week, as well as body weight measure. The food and water intake is measured twice a week.
db/db mice were treated for two weeks with a daily dose of the compound of Example 8, (R)-2-acetamido-3-((2′,4′-difluoro-3-(propoxycarbonyl)biphenyl-4-yloxy)carbonylthio) propanoic acid, or with vehicle.

A short description of data set [1]: Pharmacokinetic study: diflunisal levels in plasma after oral administration in mice. Particulars: 0.05 mmol/kg. The format is in vivo. The method, then: Diflunisal is detected in plasma of mice orally dosed with the compound described in Example 5 or the compound described in Example 8 (0.05 mmol/kg) (table 3).
Male cd-1 mice weighing 25-30 g are purchased from Charles River Laboratories Spain. The animals are housed in animal quarters at 22° C. with a 12-h light/12-h dark cycle and fed ad libitum. O/N fasted animals are dosed at […] with 0.05 mmol/kg of the indicated compound. […] Plasma was separated after centrifugation of blood and kept at −20° C. until metabolites determination.

Data set [2] is described as follows: In vitro cleavage studies: incubation with human liver S9 fraction, release of the NSAID. Particulars: after 1 h of incubation. The data set is classed as in vitro ADME. The method, then: Table 1 and 2 summarize in vitro data showing that thiocarbonate compounds are hydrolyzed in the presence of human liver S9 fraction and release the NSAID component, Diflunisal (Table 1) or salicylate (Table 2).
The compounds are incubated with human liver S9 fraction to study its metabolic stability and to profile and identify the forming metabolites. The basic incubation mixture of 500 μl in volume consisted of the following components: 1.5 mg of protein per ml, substrate in DMSO, 1 mM NADPH, 1 mM UDPGA, 1 mM PAPS and 1 mM GSH. The substrate concentration used was 2 μM. The final amount of DMSO in the incubation was 1% (v/v). Each reaction mixture was preincubated for 2 minutes at +37° C. The reaction was started by addition of cofactors. After an incubation of 60 min, a 100 μl sample was collected and the reaction was terminated by adding an equal volume of ice-cold acetonitrile. Samples were subsequently cooled in an ice bath for 15 minutes and analyzed. […] The samples are analyzed by HPLC/TOF-MS to monitor both the disappearance of the parent compound and formation of metabolites. […] In addition to ion source conditions optimised to produce molecular ions with high abundance, the samples from last time point (60 min) are analysed also using another parameters (higher aperture voltage) to generate high-resolution in-source fragment ion data. […]

For `CCCOC(=O)c1cc(-c2ccc(F)cc2F)ccc1OC(=O)SC[C@H](NC(C)=O)C(=O)O` [Example 8, (R)-2-Acetamido-3-((2′,4′-difluoro-3-(propoxycarbonyl)biphenyl-4-yloxy)carbonylthio)propanoic acid], the Fasting glycemia result with db/db mice is given as “significantly reduced”. Besides, in data set [1], the “Diflunisal detected in plasma of orally dosed mice” value is “detected”.

Regarding `COC(=O)c1cc(-c2ccc(F)cc2F)ccc1OC(=O)SCCC(NC(C)=O)C(=O)O` (racemic) [Example 5, (+/−)-2-Acetamido-4-((2′,4′-difluoro-3-(methoxycarbonyl)biphenyl-4-yloxy)carbonylthio)butanoic acid], the “Diflunisal detected in plasma of orally dosed mice” value in data set [1] is recorded as “detected”.

Take `COC(=O)c1ccccc1OC(=O)SC[C@H](NC(C)=O)C(=O)O` [Example 2, (R)-2-Acetamido-3-((2-(methoxycarbonyl)phenoxy)carbonylthio)propanoic acid]: the “Release of the NSAID (diflunisal or salicylate) on incubation in the presence of human liver S9 fraction” value in data set [2] is listed as “no diflunisal or salicylate has been detected”.

With `CC(=O)N[C@@H](CSC(=O)Oc1ccccc1C(=O)OCc1ccccc1)C(=O)O` [Example 4, (R)-2-Acetamido-3-((2-(benzyloxycarbonyl)phenoxy)carbonylthio) propanoic acid], the “Release of the NSAID (diflunisal or salicylate) on incubation in the presence of human liver S9 fraction” value in data set [2] is listed as “no diflunisal or salicylate has been detected”.
